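The compound was tested at five concentrations on cells cultured in 96-well plates, with a 48-hour exposure period. GI50: concentration for 50% inhibition of growth. TGI denotes the concentration required for complete inhibition of growth.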
Key:
Test in all cases: NCI tumour cell line growth inhibition, 48 h; in the data active means GI50 below about 0.43 µM; inactive means the rest
SF-295 CNS = tested on: SF-295 CNS
SK-MEL-2 melanoma = tested on: SK-MEL-2 melanoma
UO-31 renal = tested on: UO-31 renal
HCC-2998 colon = tested on: HCC-2998 colon
K-562 leukemia = tested on: K-562 leukemia
A498 renal = tested on: A498 renal
SK-MEL-28 melanoma = tested on: SK-MEL-28 melanoma
CCRF-CEM leukemia = tested on: CCRF-CEM leukemia
A549 NSCLC = tested on: A549 NSCLC
SN12C renal = tested on: SN12C renal
SF-539 CNS = tested on: SF-539 CNS
KM12 colon = tested on: KM12 colon
ACHN renal = tested on: ACHN renal
OVCAR-8 ovarian = tested on: OVCAR-8 ovarian
NCI-H226 lung = tested on: NCI-H226 lung
HL-60(TB) leukemia = tested on: HL-60(TB) leukemia
RXF 393 renal = tested on: RXF 393 renal
MCF7 breast = tested on: MCF7 breast
SW-620 colon = tested on: SW-620 colon
SK-OV-3 ovarian = tested on: SK-OV-3 ovarian
T-47D breast = tested on: T-47D breast
SK-MEL-5 melanoma = tested on: SK-MEL-5 melanoma
HCT-116 colon = tested on: HCT-116 colon
OVCAR-3 ovarian = tested on: OVCAR-3 ovarian
BT-549 breast = tested on: BT-549 breast
HOP-62 NSCLC = tested on: HOP-62 NSCLC
SR leukemia = tested on: SR leukemia
SNB-75 CNS = tested on: SNB-75 CNS
SF-268 CNS = tested on: SF-268 CNS
DU-145 prostate = tested on: DU-145 prostate
U251 CNS = tested on: U251 CNS
MDA-MB-231 breast = tested on: MDA-MB-231 breast
CAKI-1 renal = tested on: CAKI-1 renal
LOX IMVI melanoma = tested on: LOX IMVI melanoma
MALME-3M melanoma = tested on: MALME-3M melanoma
EKVX NSCLC = tested on: EKVX NSCLC
HS 578T breast = tested on: HS 578T breast
MDA-MB-435 = tested on: MDA-MB-435
OVCAR-4 ovarian = tested on: OVCAR-4 ovarian
786-0 renal = tested on: 786-0 renal
HCT-15 colon = tested on: HCT-15 colon
UACC-257 melanoma = tested on: UACC-257 melanoma
OVCAR-5 ovarian = tested on: OVCAR-5 ovarian
NCI/ADR-RES ovarian = tested on: NCI/ADR-RES ovarian
SNB-19 CNS = tested on: SNB-19 CNS
RPMI-8226 leukemia = tested on: RPMI-8226 leukemia
NCI-H460 lung = tested on: NCI-H460 lung
HOP-92 NSCLC = tested on: HOP-92 NSCLC
NCI-H522 lung = tested on: NCI-H522 lung
PC-3 prostate = tested on: PC-3 prostate
HT29 colon = tested on: HT29 colon
UACC-62 melanoma = tested on: UACC-62 melanoma
NCI-H23 lung = tested on: NCI-H23 lung
M14 melanoma = tested on: M14 melanoma
COLO 205 colon = tested on: COLO 205 colon
TK-10 renal = tested on: TK-10 renal

C=CCC(N[C@@H](CO)c1ccccc1)c1cn(Cc2ccccc2Cl)c(=O)n(Cc2ccccc2Cl)c1=O (some centres not stated)
> 100 µM: TGI (SF-295 CNS) | TGI (SK-MEL-2 melanoma) | TGI (UO-31 renal) | TGI (HCC-2998 colon) | TGI (K-562 leukemia) | TGI (A498 renal) | TGI (SK-MEL-28 melanoma) | TGI (CCRF-CEM leukemia) | TGI (A549 NSCLC) | TGI (SN12C renal) | TGI (SF-539 CNS) | TGI (KM12 colon) | TGI (ACHN renal) | TGI (OVCAR-8 ovarian) | TGI (NCI-H226 lung) | TGI (HL-60(TB) leukemia) | TGI (RXF 393 renal) | TGI (MCF7 breast) | TGI (SW-620 colon) | TGI (SK-OV-3 ovarian) | TGI (T-47D breast) | TGI (SK-MEL-5 melanoma) | TGI (HCT-116 colon) | TGI (OVCAR-3 ovarian) | TGI (BT-549 breast) | TGI (HOP-62 NSCLC) | TGI (SR leukemia) | TGI (SNB-75 CNS) | TGI (SF-268 CNS) | TGI (DU-145 prostate) | TGI (U251 CNS) | TGI (MDA-MB-231 breast) | TGI (CAKI-1 renal) | TGI (LOX IMVI melanoma) | TGI (MALME-3M melanoma) | TGI (EKVX NSCLC) | TGI (HS 578T breast) | TGI (MDA-MB-435) | TGI (OVCAR-4 ovarian) | TGI (786-0 renal) | TGI (HCT-15 colon) | TGI (UACC-257 melanoma) | TGI (OVCAR-5 ovarian) | TGI (NCI/ADR-RES ovarian) | TGI (SNB-19 CNS) | TGI (RPMI-8226 leukemia) | TGI (NCI-H460 lung) | TGI (HOP-92 NSCLC) | TGI (NCI-H522 lung) | TGI (PC-3 prostate) | TGI (HT29 colon) | TGI (UACC-62 melanoma) | TGI (NCI-H23 lung) | TGI (M14 melanoma) | TGI (COLO 205 colon) | TGI (TK-10 renal)
inactive: GI50 (SF-295 CNS) > 100 µM | GI50 (SK-MEL-2 melanoma) > 100 µM | GI50 (UO-31 renal) > 100 µM | GI50 (HCC-2998 colon) > 100 µM | GI50 (K-562 leukemia) > 100 µM | GI50 (A498 renal) 13.5 µM | GI50 (SK-MEL-28 melanoma) > 100 µM | GI50 (CCRF-CEM leukemia) > 100 µM | GI50 (A549 NSCLC) > 100 µM | GI50 (SN12C renal) > 100 µM | GI50 (SF-539 CNS) > 100 µM | GI50 (KM12 colon) > 100 µM | GI50 (ACHN renal) > 100 µM | GI50 (OVCAR-8 ovarian) > 100 µM | GI50 (NCI-H226 lung) > 100 µM | GI50 (HL-60(TB) leukemia) 93.2 µM | GI50 (RXF 393 renal) > 100 µM | GI50 (MCF7 breast) > 100 µM | GI50 (SW-620 colon) > 100 µM | GI50 (SK-OV-3 ovarian) > 100 µM | GI50 (T-47D breast) > 100 µM | GI50 (SK-MEL-5 melanoma) > 100 µM | GI50 (HCT-116 colon) 87.3 µM | GI50 (OVCAR-3 ovarian) > 100 µM | GI50 (BT-549 breast) 76.2 µM | GI50 (HOP-62 NSCLC) > 100 µM | GI50 (SR leukemia) > 100 µM | GI50 (SNB-75 CNS) 79.3 µM | GI50 (SF-268 CNS) > 100 µM | GI50 (DU-145 prostate) > 100 µM | GI50 (U251 CNS) > 100 µM | GI50 (MDA-MB-231 breast) 78 µM | GI50 (CAKI-1 renal) 73.6 µM | GI50 (LOX IMVI melanoma) > 100 µM | GI50 (MALME-3M melanoma) > 100 µM | GI50 (EKVX NSCLC) > 100 µM | GI50 (HS 578T breast) > 100 µM | GI50 (MDA-MB-435) > 100 µM | GI50 (OVCAR-4 ovarian) > 100 µM | GI50 (786-0 renal) > 100 µM | GI50 (HCT-15 colon) > 100 µM | GI50 (UACC-257 melanoma) > 100 µM | GI50 (OVCAR-5 ovarian) > 100 µM | GI50 (NCI/ADR-RES ovarian) > 100 µM | GI50 (SNB-19 CNS) > 100 µM | GI50 (RPMI-8226 leukemia) 55.8 µM | GI50 (NCI-H460 lung) > 100 µM | GI50 (HOP-92 NSCLC) > 100 µM | GI50 (NCI-H522 lung) > 100 µM | GI50 (PC-3 prostate) 83.9 µM | GI50 (HT29 colon) > 100 µM | GI50 (UACC-62 melanoma) 82.2 µM | GI50 (NCI-H23 lung) > 100 µM | GI50 (M14 melanoma) > 100 µM | GI50 (COLO 205 colon) > 100 µM | GI50 (TK-10 renal) > 100 µM

— PubChem BioAssay (NCI)
